Laboratory results taken from patent publication US20160297851A1, “BROAD SPECTRUM […]” (priority 2012, published 2016).
≈ marks a conversion by molar mass, not a printed value. Entries after “also recorded” stand apart in the source; their conditions may differ. Read-outs that look alike come from different tables or passages of the source.

What was measured:
Experiment in all cases: microbe, parasite or virus in culture
[1] = tested on: lepB(P84L) E. coli MG1655; type: cell-based, Escherichia coli
[2] = tested on: lepB(P29S) S. aureus 8325; type: cell-based, Staphylococcus aureus; conditions: for MIC: Sensitive (genetically sensitized) strain
[3] = tested on: spsB(S29P) S. epidermidis RP62A; type: cell-based, Staphylococcus epidermidis
[4] = tested on: lepB(P84L) P. aeruginosa PAO1; type: cell-based, Pseudomonas aeruginosa
wild type S. aureus 8325 = type: cell-based, Staphylococcus aureus; conditions: for MIC: Resistant strain (wild type)
wild type E. coli MG1655 = type: cell-based, Escherichia coli
[5] = tested on: wild type P. aeruginosa PAO1; type: cell-based, Pseudomonas aeruginosa
[6] = tested on: wild type S. epidermidis RP62A; type: cell-based, Staphylococcus epidermidis; conditions: for MIC: Sensitive strain (SPase without the resistance-conferring Pro)
[7] = Escherichia coli, MG1655, Sensitive (genetically sensitized) strain, read-out: MIC
[8] = Staphylococcus aureus, read-out: MIC
[9] = Staphylococcus epidermidis, read-out: MIC
[10] = Pseudomonas aeruginosa, PAO1, Sensitive (genetically sensitized) strain, read-out: MIC
[11] = Escherichia coli, MG1655, Resistant strain (wild type), read-out: MIC
[12] = Pseudomonas aeruginosa, PAO1, Resistant strain (wild type), read-out: MIC
[13] = Table 3, P3 position derivatives, unit not given
[14] = Sensitive (genetically sensitized) strain

SMILES | MIC [1, 7] [µg/mL] | MIC [2, 8] [µg/mL] | MIC [3, 9] [µg/mL] | MIC [4, 10] [µg/mL] | MIC (wild type S. aureus 8325; [8]) [µg/mL] | MIC (wild type E. coli MG1655; [11]) [µg/mL] | MIC [5, 12] [µg/mL] | MIC [6, 9] [µg/mL] | fold loss of activity relative to arylomycin C16 [2] | minimal inhibitory concentration (MIC) [1, 13] | minimal inhibitory concentration (MIC) [2, 13] | fold loss of activity relative to arylomycin C16 [4] | minimal inhibitory concentration (MIC) [4, 13] | minimal inhibitory concentration (MIC) [6, 13] | also measured
CCCCCCCCc1ccc(-c2ccc(C(=O)N(C)[C@H](CO)C(=O)N[C@H](C)C(=O)NCC(=O)N(C)[C@@H]3C(=O)N[C@@H](C)C(=O)N[C@H](C(=O)O)Cc4ccc(O)c(c4)-c4cc3ccc4O)cc2)cc1 [Compound 12] | 1 | 8 | 32 (≈ 34.2 µM) | > 64 | 64 (≈ 68.4 µM) | > 64 | > 64 | 0.5 (≈ 0.535 µM) | – | – | – | – | – | – | activity in words [3]: active
CCCCCCCCCCCCCCCC(=O)N(C)[C@H](CO)C(=O)N[C@H](C)C(=O)NCC(=O)N(C)[C@@H]1C(=O)N[C@@H](CCCC)C(=O)N[C@H](C(=O)O)Cc2ccc(O)c(c2)-c2cc1ccc2O [Compound 29] | – | – | – | – | – | – | – | – | 32 fold | – | – | – | – | – | minimal inhibitory concentration (MIC) [1]: >128; minimal inhibitory concentration (MIC) [2]: 16; minimal inhibitory concentration (MIC) [4]: >128; minimal inhibitory concentration (MIC) [6]: 4
CCCCCCCCCCc1ccc(C(=O)N(C)[C@H](CO)C(=O)N[C@H](C)C(=O)NCC(=O)N(C)[C@@H]2C(=O)N[C@@H](C)C(=O)N[C@H](C(=O)O)Cc3ccc(O)c(c3)-c3cc2ccc3O)cc1 [Compound 15] | 8 | 8 | > 64 | 64 | > 64 | > 64 | > 64 | 1 (≈ 1.13 µM) | – | – | – | – | – | – | activity in words (wild type S. aureus 8325): has activity; also recorded: gains activity
CCCCCCc1ccc(C(=O)N(C)[C@H](CO)C(=O)N[C@H](C)C(=O)NCC(=O)N(C)[C@@H]2C(=O)N[C@@H](C)C(=O)N[C@H](C(=O)O)Cc3ccc(O)c(c3)-c3cc2ccc3O)cc1 [Compound 13] | 1 | 8 | 16 (≈ 19.3 µM) | > 64 | 16 (≈ 19.3 µM) | > 64 | > 64 | 1 (≈ 1.2 µM) | – | – | – | – | – | – | –
CCCCCCCCCCCCCCCC(=O)N(C)[C@H](CO)C(=O)N[C@H](C)C(=O)NCC(=O)N(C)[C@@H]1C(=O)NC(CC(F)(F)F)C(=O)N[C@H](C(=O)O)Cc2ccc(O)c(c2)-c2cc1ccc2O (stereo partly drawn) [Compound 33] | – | – | – | – | – | – | – | – | at least 16 fold | 16 | >64 | at least 16 fold | >64 | 8 | fold loss of activity relative to arylomycin C16 [1]: 8 fold; fold loss of activity relative to arylomycin C16 [6]: 32 fold
CCc1ccc(-c2ccc(C(=O)N(C)[C@H](CO)C(=O)N[C@H](C)C(=O)NCC(=O)N(C)[C@@H]3C(=O)N[C@@H](C)C(=O)N[C@H](C(=O)O)Cc4ccc(O)c(c4)-c4cc3ccc4O)cc2)cc1 [Compound 10] | – | – | – | – | – | – | – | – | – | – | – | – | – | – | MIC [1, 14]: 16 µg/mL; MIC [2]: 64 µg/mL; MIC [3]: >64 µg/mL; MIC [4, 14]: >64 µg/mL; MIC (wild type S. aureus 8325): >64 µg/mL; MIC (wild type E. coli MG1655; Resistant strain (wild type)): >64 µg/mL; MIC ([5]; Resistant strain (wild type)): >64 µg/mL; MIC [6]: 8 µg/mL (≈ 9.4 µM)
CCCCCCCCCCCCCCCC(=O)N(C)[C@H](CO)C(=O)N[C@H](C)C(=O)NCC(=O)N(C)[C@@H]1C(=O)N[C@@H](CCCCC)C(=O)N[C@H](C(=O)O)Cc2ccc(O)c(c2)-c2cc1ccc2O [Compound 30] | – | – | – | – | – | – | – | – | 32 fold | >128 | 16 | – | >128 | 4 | –
CCCCCCCCCCCCCCCC(=O)N(C)[C@H](CO)C(=O)N[C@H](C)C(=O)NCC(=O)N(C)[C@@H]1C(=O)NCC(=O)N[C@H](C(=O)O)Cc2ccc(O)c(c2)-c2cc1ccc2O [Compound 26] | – | – | – | – | – | – | – | – | > 16 fold | – | – | > 16 fold | – | – | fold loss of activity relative to arylomycin C16 [1]: 32 fold; minimal inhibitory concentration (MIC) [1]: 16; minimal inhibitory concentration (MIC) [2]: >64; minimal inhibitory concentration (MIC) [4]: >64; fold loss of activity relative to arylomycin C16 [6]: 32 fold; minimal inhibitory concentration (MIC) [6]: 8
CCCCCCCCCCCCCCCC(=O)N(C)[C@H](CO)CC(=O)N[C@H](C)C(=O)NCC(=O)N(C)[C@@H]1C(=O)N[C@@H](C)C(=O)N[C@H](C(=O)O)Cc2ccc(O)c(c2)-c2cc1ccc2O [Compound 23] | > 64 | 16 | 8 (≈ 8.94 µM) | > 64 | 64 (≈ 71.5 µM) | > 64 | > 64 | 4 (≈ 4.47 µM) | – | – | – | – | – | – | activity in words (wild type S. aureus 8325): gain activity
CCCCCCCCCCCCCCCC(=O)N(C)[C@H](CO)C(=O)N[C@H](C)C(=O)NCC(=O)N(C)[C@@H]1C(=O)N[C@@H](C(C)C)C(=O)N[C@H](C(=O)O)Cc2ccc(O)c(c2)-c2cc1ccc2O [Compound 34] | – | – | – | – | – | – | – | – | – | 4 | 32 | 4 fold | 16 | 4 | activity in words [1]: maintained activity
